Assay results taken from US11266662B2, “Ganaxolone for use in prophylaxis and treatment of postpartum depression” (Marinus Pharmaceuticals, Inc., priority 2018, dated 2022).

Key:
[1] = tested on: women with postpartum depression; assay: Phase 2A study Cohort 6: efficacy (HAM-D17, CGI-I, EPDS, STAI6) versus placebo; assay type: in vivo, human; conditions: for Placebo-adjusted difference, HAM-D17 (LS Mean), early efficacy / Placebo-adjusted difference, HAM-D17 (LS Mean), late efficacy: Cohort 6: IV 20 mg/hr for 6 h then 900 mg orally for 28 days; for Placebo-adjusted difference, HAM-D17 (LS Mean), late efficacy: Day 29
Procedure: Approximately 10-30 subjects are randomized into each cohort.
(§1) The primary efficacy endpoint is HAM-D17 total score change from baseline to 60 hours post-infusion (on Day 3) for Cohorts 1-3 and to Day 29 for Cohort 6. The primary analysis in each cohort is done using the mITT set. Although the trial is not powered for inferential analysis and there is no consideration for control of type 1 error across multiple cohorts, a clinically meaningful numeric difference in means of 3-4 points, based on mITT analysis, between ganaxalone and placebo treatment groups is considered an indication of acceptable efficacy and is be the most influential outcome in the overall assessment of the efficacy of ganaxolone in treating PPD.
The trial also evaluates the following secondary endpoints at each post-baseline data collection time point to provide additional evidence of the efficacy of ganaxolone in treating PPD: • Change from baseline in HAM-D17 total score other than at 60 hours post-infusion (on Day 3) for Cohorts 1-3 and to Day 29 for Cohort 6 • Change from baseline in EPDS total score • Change from baseline in STAI6 • CGI-I. Exploratory Endpoints

[2] = tested on: women with postpartum depression; assay: Mean change in HAM-D score, ganaxolone versus placebo treatment groups; assay type: in vivo, human; conditions: worded as 'in certain embodiments'
From the text: The Hamilton Depression Rating Scale (HAM-D) is a commonly-used semi-structured clinician-rated instrument which assesses the range of symptoms that are most frequently observed in subjects with major depression. HAM-D has undergone a considerable amount of psychometric study and is accepted as a valid standard of symptom outcome assessment in studies of major depression. In the examples disclosed herein HAM-D was scored using the original 17-item HAM-D scale (HAM-D17).
Administration of ganaxolone in accordance with the methods of the present invention may provide a mean change in HAM-D score (i.e., least-squares (LS) mean reduction) at about 6 hours and/or at about 12 hours and/or about 24 hours (about 1 day) and/or about 48 hours (about 2 days) and/or about 60 hours (about 2.5 days) and/or about 72 hours (about 3 days) and/or about 11 days and/or about 30 days and/or about 34 days of from about 2 to about 17. In the preferred embodiments, the mean change in HAM-D score is greater than placebo.
as §1

[3] = Cardiovascular safety pharmacology in dogs, single dose; assay type: in vivo, dog; conditions: dog, in vivo, single dose of up to 15 mg/kg
Procedure: (§2) Safety pharmacology studies were conducted with ganaxolone.

dogs [4] = assay: as above; assay type: in vivo, dog; conditions: single dose of up to 15 mg/kg
Procedure: as §2

female rats = assay: Pulmonary safety pharmacology in female rats; assay type: in vivo, rat; conditions: doses up to 40 mg/kg
Procedure: as §2

[5] = tested on: synaptic and extrasynaptic GABAA receptors; assay: Activation of synaptic and extrasynaptic GABAA receptors; conditions: site distinct from the benzodiazepine site
[6] = human plasma following oral administration; cited from earlier work
[7] = IV toxicity in rats, 14 days; conditions: rat, in vivo, iv
rats = assay: IV toxicity in rats, 14 days; conditions: continuous IV dosing for 14 days
[8] = 1-year (chronic oral) dog toxicity study; conditions: dog, in vivo, oral, 15 mg/kg/day
dogs [9] = assay: 1-year (chronic oral) dog toxicity study

CC(=O)[C@H]1CC[C@H]2[C@@H]3CC[C@H]4C[C@](C)(O)CC[C@]4(C)[C@H]3CC[C@]12C [ganaxolone, 3α-hydroxy-3β-methyl-5α-pregnan-20-one]
EPDS and STAI6 versus placebo ([1]; Cohort 6): numeric advantage at all timepoints till Day 29
Placebo-adjusted difference, HAM-D17 (LS Mean), early efficacy ([1]; PP, 6 hours): −3.4
Placebo-adjusted difference, HAM-D17 (LS Mean), early efficacy ([1]; PP, Day 2): −2.7
Placebo-adjusted difference, HAM-D17 (LS Mean), late efficacy ([1]; PP): −2.6
Placebo-adjusted difference, HAM-D17 (LS Mean), early efficacy ([1]; mITT, 6 hours): −2.8
Placebo-adjusted difference, HAM-D17 (LS Mean), early efficacy ([1]; mITT, Day 2): −2.6
Placebo-adjusted difference, HAM-D17 (LS Mean), late efficacy ([1]; mITT): +1
HAMD17 change from baseline, PP analysis and sensitivity by site analyses ([1]; Cohort 6, after Day 2): favors GNX
HAMD17 decrease versus placebo ([1]; Cohort 6, at 6 hours and on Day2, both mITT, PP): favor ganaxolone
CGI-I decrease versus placebo ([1]; Cohort 6, both mITT, PP, early timepoint): favors GNX
HAMD17 mITT analysis at late and intermediate timepoints during oral treatment ([1]; Cohort 6, mITT): not different from placebo
CGI-I versus placebo ([1]; Cohort 6, mITT and PP, Day 2, Day 8, Day 15, Day 29 (p<0.05)): favors GNX at all timepoints
Difference between ganaxolone and placebo treatment groups in mean change in HAM-D score ([2]; 12 hours): 0.7
Difference between ganaxolone and placebo treatment groups in mean change in HAM-D score ([2]; 24 hours): 1.5
Difference between ganaxolone and placebo treatment groups in mean change in HAM-D score ([2]; 48 hours): 5.6
Difference between ganaxolone and placebo treatment groups in mean change in HAM-D score ([2]; 60 hours): 4.2
Difference between ganaxolone and placebo treatment groups in mean change in HAM-D score ([2]; 72 hours): 2.9
Difference between ganaxolone and placebo treatment groups in mean change in HAM-D score ([2]; 11 days): 5.9
Difference between ganaxolone and placebo treatment groups in mean change in HAM-D score ([2]; 34 days): 4.1
AUC(0-t) ([3]; read-out: AUC(0-24)): 10000 ng·h/mL
Cmax ([3]; read-out: Maximum concentration [Cmax]): 1000 ng/mL
Effect on cardiovascular parameters (dogs [4]): no effect on cardiovascular parameters
Pulmonary effects (female rats): No pulmonary effects were observed
Potency and efficacy in activating GABAA receptors [5]: comparable to allopregnanolone
Half-life [6]: approximately 20 hours
NOAEL at 14 days ([7]; female): 30 mg/kg/day
NOAEL at 14 days ([7]; male): 42 mg/kg/day
Clinical pathology parameters or histopathology (rats): no ganaxolone-related changes
Cmax [8]: > 1500 ng/mL
Findings associated with mean Cmax greater than 1500 ng/mL (dogs [9]; 10 and 15 mg/kg/day): increased weight and total plasma cholesterol levels
ECG / heart rate finding (dogs [9]; after 3 months of dosing, in 4 animals (>190 bpm)): transient sinus tachycardia
